Here are results for 7 compounds from patent publication US9409952B2, “Peptide-compound cyclization method” (Chugai Seiyaku Kabushiki Kaisha, priority 2011, dated 2016).

Data set [1] can be described thus: Metabolic stability in human hepatic microsome. The class given is in vitro ADME. Particulars: microsomes.
A short description of data set [2]: PAMPA (parallel artificial membrane permeability assay). The class given is in vitro ADME. Particulars: PAMPA. The method in brief: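 Artificial membrane was 10% (w/v) egg lecithin plus 0.5% (w/v) cholesterol in dodecane on a PVDF filter. A 10 mM DMSO stock was added at 0.5% (v/v) to donor buffer (50 mM MOPSO, pH 6.5, 5.0% glycocholic acid). After 18 h at 37 °C, LC/MS or LC/UV gave donor and acceptor levels for Pe.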

Setting [3] is: pH 7.4, human hepatic microsome, NADPH(+), read-out: CL NADPH(+).
Where [4] appears, read: membrane permeation rate (Pe), 50 mM MOPSO buffer pH 6.5 with 5.0% glycocholic acid, 37° C., 18 hours, read-out: iPAMPA Pe.

Molecules are shown by their SMILES. Read-outs that look alike come from different tables or passages of the source. Positions of bridges follow the written chain, without caps; N, C: chain ends. Non-standard residues stand in square brackets, D forms with d. Residues, ends and D or L forms follow the SMILES beside them. ξ: configuration not given here. *: point of attachment. NMeF = CN[C@@H](Cc1ccccc1)C(=O)O; NMeL = CN[C@@H](CC(C)C)C(=O)O; ξNMeF = CNC(Cc1ccccc1)C(=O)O; NMeV = CN[C@H](C(=O)O)C(C)C; NMeA = CN[C@@H](C)C(=O)O; Piperidide = C1CCN(*)CC1; dNMeA = CN[C@H](C)C(=O)O; Sar = CNCC(=O)O

In data set [1] (human, pH 7.4, CL NADPH(+)), `CC(C)C[C@H]1C(=O)N[C@H](C(=O)N(C)[C@@H](Cc2ccccc2)C(=O)N[C@@H](C)C(=O)N2CCCCC2)CC(=O)N(C)[C@H](C)C(=O)N(C)[C@@H](Cc2ccccc2)C(=O)N(C)[C@@H](CC(C)C)C(=O)N[C@@H]([C@@H](C)O)C(=O)N(C)[C@@H](C)C(=O)N(C)[C@@H](CC(C)C)C(=O)N[C@@H](C(C)C)C(=O)N1C` [DP-313] ([dNMeA][NMeF][NMeL]T[NMeA][NMeL]V[NMeL]D[NMeF]A-Piperidide; lactam N-9) gave a microsomal CLint at 1 uM of 61 µL/min/mg. Also, the Papp at 18 hours, 50 µM in data set [2] (pH 6.5) stood at 21 ×10⁻⁶ cm/s.
In the case of `CC(C)C[C@H]1C(=O)N(C)[C@@H](Cc2ccccc2)C(=O)NCC(=O)N(C)[C@@H](Cc2ccccc2)C(=O)N(C)[C@@H](C)C(=O)N[C@@H]([C@@H](C)O)C(=O)N[C@H](C(=O)N(C)[C@@H](Cc2ccccc2)C(=O)N(C)[C@@H](Cc2ccccc2)C(=O)N[C@@H](C)C(=O)N2CCCCC2)CC(=O)N(C)CC(=O)N[C@@H](C(C)C)C(=O)N1C` [DP-314] ([Sar]V[NMeL][NMeF]G[NMeF][NMeA]TD[NMeF][NMeF]A-Piperidide; lactam N-9), in data set [1] (setting [3]), the microsomal CLint at 1 uM is 133 µL/min/mg. Also, the Papp at 18 hours, 50 µM in data set [2] (setting [4]) came out at 49 ×10⁻⁶ cm/s.
As to `CC(C)C[C@H]1C(=O)N[C@@H](C(C)C)C(=O)N[C@H](C(=O)N(C)C(Cc2ccccc2)C(=O)N(C)[C@@H](Cc2ccccc2)C(=O)N[C@@H](C)C(=O)N2CCCCC2)CC(=O)N[C@H](C)C(=O)N(C)[C@@H](C)C(=O)N(C)[C@@H](Cc2ccccc2)C(=O)N(C)[C@@H](CC(C)C)C(=O)N[C@@H]([C@@H](C)O)C(=O)N(C)CC(=O)N1C` (some centres unmarked) [DP-315] ([dA][NMeA][NMeF][NMeL]T[Sar][NMeL]VD[ξNMeF][NMeF]A-Piperidide; lactam N-9), the microsomal CLint at 1 uM in data set [1] (human, pH 7.4, CL NADPH(+)) was determined as 63 µL/min/mg. The compound further had a Papp at 18 hours, 50 µM in data set [2] (pH 6.5) of 30 ×10⁻⁶ cm/s.
In the same order, the values of `CC(C)C[C@H]1C(=O)N(C)[C@@H](Cc2ccccc2)C(=O)N(C)[C@@H](C)C(=O)N[C@@H](Cc2ccccc2)C(=O)N[C@H](C(=O)N(C)[C@@H](Cc2ccccc2)C(=O)N[C@@H](C)C(=O)N2CCCCC2)CC(=O)N(C)CC(=O)N[C@@H]([C@@H](C)O)C(=O)N(C)CC(=O)N[C@@H](C(C)C)C(=O)N1C` [DP-316] ([Sar]T[Sar]V[NMeL][NMeF][NMeA]FD[NMeF]A-Piperidide; lactam N-9) are 35 µL/min/mg and 12 ×10⁻⁶ cm/s.
With `CC(C)C[C@H]1C(=O)N(C)[C@@H](C(C)C)C(=O)N[C@@H]([C@@H](C)O)C(=O)N(C)CC(=O)N(C)[C@@H](C)C(=O)N(C)[C@@H](C)C(=O)N[C@@H](C(C)C)C(=O)N[C@H](C(=O)N2CCCCC2)CC(=O)N(C)[C@H](C)C(=O)N(C)[C@@H](C)C(=O)N[C@@H](C)C(=O)N(C)[C@@H](Cc2ccccc2)C(=O)N1C` [DP-319] ([dNMeA][NMeA]A[NMeF][NMeL][NMeV]T[Sar][NMeA][NMeA]VD-Piperidide; lactam N-12), in data set [1] (setting [3]), the microsomal CLint at 1 uM came to 12 µL/min/mg. Further, the Papp at 18 hours, 50 µM in data set [2] (setting [4]) was 1 ×10⁻⁶ cm/s.
As for `CC[C@H](C)[C@@H]1NC(=O)[C@H]([C@@H](C)O)NC(=O)[C@H](Cc2ccccc2)NC(=O)[C@H](CC(C)C)NC(=O)[C@@H](C)NC(=O)C[C@@H](C(=O)N2CCCCC2)NC(=O)[C@H](CC(C)C)NC(=O)[C@H](CC(C)C)N(C)C(=O)[C@H](CC(C)C)NC(=O)CNC(=O)[C@H](Cc2ccccc2)NC1=O` [DP-321] ([dA]LFTIFGL[NMeL]LD-Piperidide; lactam N-11), in data set [1] (setting [3]), the microsomal CLint at 1 uM came to 19 µL/min/mg. Also, the Papp at 18 hours, 50 µM in data set [2] (setting [4]) is 6.2 ×10⁻⁶ cm/s.
For `CC(C)C[C@H]1C(=O)N(C)[C@@H](C(C)C)C(=O)N(C)[C@@H](C)C(=O)N[C@@H](Cc2ccccc2)C(=O)N(C)[C@@H](C)C(=O)N[C@H](C(=O)N2CCCCC2)CC(=O)N(C)[C@@H](C)C(=O)N[C@@H]([C@@H](C)O)C(=O)N(C)[C@@H](C)C(=O)N[C@@H](C)C(=O)N(C)[C@@H](Cc2ccccc2)C(=O)N1C` [DP-322] ([NMeA]T[NMeA]A[NMeF][NMeL][NMeV][NMeA]F[NMeA]D-Piperidide; lactam N-11), in that order: 74 µL/min/mg and 10 ×10⁻⁶ cm/s.
